Assay: Dissolution of dental calculus by immersion (weight after treatment)

polyphosphoric acid
weight of dental calculus after the treatment (1.5 mg calculus immersed 7 minutes and 30 seconds in 1 ml of 10% aqueous solution): 0.7 mg

O=C(O)CC(O)(CC(=O)O)C(=O)O [citric acid]
weight of dental calculus after the treatment (1.3 mg calculus immersed 13 minutes in 1 ml of 10% aqueous solution): 0.65 mg

O=C([O-])CN(CCN(CC(=O)[O-])CC(=O)O)CC(=O)O.[Na+].[Na+] [disodium edetate]
weight of dental calculus after the treatment (0.50 mg calculus immersed 44 minutes in 1 ml of 14.3% solution): 0.25 mg

O=C(O)CO [glycolic acid]
weight of dental calculus after the treatment (0.9 mg calculus immersed 9 minutes in 1 ml of 10% aqueous solution): 0.5 mg

O=P(O)(O)O [phosphoric acid]
weight of dental calculus after the treatment (1.2 mg calculus immersed 7 minutes and 30 seconds in 1 ml of 10% aqueous solution): 0.6 mg
weight of dental calculus after the treatment (1.4 mg calculus immersed 8 minutes and 30 seconds in 1 ml of 2% aqueous solution): 0.7 mg

O=P(O)(O)O[C@H]1[C@H](OP(=O)(O)O)[C@@H](OP(=O)(O)O)[C@H](OP(=O)(O)O)[C@@H](OP(=O)(O)O)[C@H]1OP(=O)(O)O [phytic acid]
weight of dental calculus after the treatment (3.0 mg calculus immersed 5 minutes in 1 ml aqueous solution containing 0.5 g phytic acid (15% aqueous solution)): 2.6 mg
weight of dental calculus after the treatment (3.0 mg calculus immersed 10 minutes in 1 ml aqueous solution containing 0.5 g phytic acid (15% aqueous solution)): 2.1 mg

O=C(O)CC(O)C(=O)O (stereo not shown) [malic acid]
weight of dental calculus after the treatment (1.2 mg calculus immersed 13 minutes in 1 ml of 10% aqueous solution): 0.6 mg

O=P(O)(O)OP(=O)(O)O [pyrophosphoric acid]
weight of dental calculus after the treatment (2.2 mg calculus immersed 7 minutes in 1 ml of 10% aqueous solution): 1.1 mg

Reference: patent US7879315B2, “Agent for dissolving dental calculi and dental caries” (Showa Yakuhin Kako Co., Ltd., priority 2002, dated 2011)
